Experimental findings from PubChem BioAssay (NCI) are described below.

Some test systems named below: EKVX NSCLC; HCT-15 colon; HL-60(TB) leukemia; HT29 colon; KM12 colon; MDA-MB-231 breast; NCI-H23 lung; OVCAR-3 ovarian; SK-OV-3 ovarian; SN12C renal.
Holding throughout (assay): growth of human tumour cells (NCI), 48 h

Values joined by “and” are separate entries in the source; they are usually repeats but may differ in a detail not shown here. Equal entries are not always repeated.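 96-well plates; 48 h exposure; 5 concentrations. Endpoints by linear interpolation between flanking doses. Not reached: highest tested concentration assigned. Here, GI50 denotes the concentration required for 50% inhibition of growth. Definition used: TGI = concentration required for complete inhibition of growth.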

In the case of `CC(C)c1ccc2c(c1)c(SC(C)(C)C)c(CC(C)(C)C(=O)O)n2Cc1ccc(Cl)cc1`, the GI50 with EKVX NSCLC was 4.42 µM; in the test on HCT-15 colon, 8.8 µM; in the test with HL-60(TB) leukemia, 8.5 µM; in the test on HT29 colon, 5.75 µM; with KM12 colon it was 10.2 µM; in the test with MDA-MB-231 breast, 12.6 µM. For the same compound, the GI50 with NCI-H23 lung is 10.8 µM; with OVCAR-3 ovarian, 6.36 µM; with SK-OV-3 ovarian it was 14.1 µM; in the test on SN12C renal, 12.2 µM. The TGI in the test with EKVX NSCLC was found to be 13 µM; with HCT-15 colon it was 23.4 µM; in the test with HL-60(TB) leukemia, 30.3 µM; with HT29 colon, 16.9 µM; in the test on KM12 colon it was 26.3 µM; in the test on MDA-MB-231 breast, 27.3 µM. Further, the TGI turned out to be 28.1 µM in the test with NCI-H23 lung, 19.8 µM in the test on OVCAR-3 ovarian, 29.8 µM with SK-OV-3 ovarian and 25.3 µM with SN12C renal.

As for `Cc1ccc(NCCNCC(O)CO)c2c(=O)c3ccccc3sc12` (stereo not drawn), the GI50 was 1.83 µM in the test with EKVX NSCLC; 1.29 µM with HCT-15 colon; 1.62 µM in the test on HL-60(TB) leukemia; 1.41 µM with HT29 colon; 1.74 µM in the test on KM12 colon; 1.37 µM in the test with MDA-MB-231 breast. Further, the GI50 with NCI-H23 lung is 1.73 µM; in the test on OVCAR-3 ovarian, 2.15 µM; with SK-OV-3 ovarian it was 1.65 µM; in the test with SN12C renal, 1.32 µM. Further, the TGI is 3.77 µM with EKVX NSCLC; 2.72 µM with HCT-15 colon; 3.7 µM in the test with HL-60(TB) leukemia; 3.04 µM with HT29 colon; 3.6 µM with KM12 colon; 3 µM in the test on MDA-MB-231 breast. For the same compound, the TGI in the test with NCI-H23 lung came to 3.54 µM; with OVCAR-3 ovarian, 4.7 µM; with SK-OV-3 ovarian, 3.86 µM; in the test on SN12C renal, 3.19 µM.

On to `COc1ccc(-c2nn3ncccc3c2-c2ccnc(Nc3cccc(C(F)(F)F)c3)n2)cc1`, for which the GI50 in the test on EKVX NSCLC was 6.69 µM; in the test with HCT-15 colon, 7.97 µM; with HL-60(TB) leukemia, 8.74 µM; in the test with HT29 colon, 7.56 µM; with KM12 colon, 9.33 µM; with MDA-MB-231 breast, 8.12 µM. Besides, the GI50 in the test with NCI-H23 lung was 7.99 µM; in the test on OVCAR-3 ovarian, 8.36 µM; in the test with SK-OV-3 ovarian, 7.76 µM; in the test on SN12C renal, 8.03 µM. For the same compound, the TGI in the test on EKVX NSCLC, with HCT-15 colon, with HL-60(TB) leukemia, in the test with HT29 colon, in the test with KM12 colon and with MDA-MB-231 breast was more than 25 µM throughout. Moreover, the TGI with NCI-H23 lung, with OVCAR-3 ovarian, in the test on SK-OV-3 ovarian and in the test on SN12C renal was more than 25 µM each time.

For the compound `Cc1ccc(-c2cc(C(Cl)Cl)on2)cc1`, the GI50 in the test on EKVX NSCLC is 46.1 µM; with HCT-15 colon, 42.4 µM; in the test with HL-60(TB) leukemia, 62.9 µM; with HT29 colon, 26.9 µM; in the test with KM12 colon, 36.6 µM; in the test on MDA-MB-231 breast, more than 100 µM. For the same compound, the GI50 was 55.3 µM in the test on NCI-H23 lung, 51.8 µM with OVCAR-3 ovarian, more than 100 µM in the test on SK-OV-3 ovarian and more than 100 µM with SN12C renal. The TGI in the test on EKVX NSCLC, with HCT-15 colon, with HL-60(TB) leukemia, in the test on HT29 colon, with KM12 colon and with MDA-MB-231 breast was more than 100 µM in each case. Moreover, the TGI with NCI-H23 lung, with OVCAR-3 ovarian, in the test on SK-OV-3 ovarian and in the test on SN12C renal was more than 100 µM each time.

On to `COc1ccc(CNC(=O)c2ccc(-c3cc(-c4nnc(C)o4)ccc3C)cc2)cc1`, for which the GI50 with EKVX NSCLC was 7.68 µM; in the test with HCT-15 colon, 19.9 µM; in the test with HL-60(TB) leukemia it was more than 18.5 µM; in the test on HT29 colon, more than 25 µM; in the test on KM12 colon it was more than 25 µM; with MDA-MB-231 breast it was more than 25 µM. In addition, the GI50 in the test with NCI-H23 lung was 17.4 µM; with OVCAR-3 ovarian, 17.1 µM; in the test with SK-OV-3 ovarian, more than 25 µM; in the test with SN12C renal it was more than 25 µM. Besides, the TGI in the test on EKVX NSCLC, with HCT-15 colon, with HL-60(TB) leukemia, with HT29 colon, in the test with KM12 colon and with MDA-MB-231 breast was more than 25 µM throughout. Also, the TGI with NCI-H23 lung, in the test on OVCAR-3 ovarian, in the test on SK-OV-3 ovarian and with SN12C renal was more than 25 µM throughout.

Take `Cc1cc([C@H](C)Nc2nccc(N3C(=O)OC[C@@H]3[C@H](C)F)n2)ncc1-c1ccnc(C(F)(F)F)c1`: the GI50 was 19.2 µM in the test on EKVX NSCLC; 35.5 µM in the test on HCT-15 colon; 35.7 µM with HL-60(TB) leukemia; 35.6 µM in the test on HT29 colon; 33.8 µM with KM12 colon; 34.5 µM with MDA-MB-231 breast. Moreover, the GI50 was 17 µM in the test on NCI-H23 lung, 36.3 µM in the test with OVCAR-3 ovarian and 44.5 µM in the test with SN12C renal. Further, the TGI in the test with EKVX NSCLC, with HCT-15 colon, in the test with HL-60(TB) leukemia, with HT29 colon, in the test with KM12 colon and with MDA-MB-231 breast was more than 100 µM each time. Besides, the TGI with NCI-H23 lung, in the test on OVCAR-3 ovarian and with SN12C renal was more than 100 µM in each case.

Take `CN1CCN(CCCOc2ccc3ncnc(Nc4ccc(Oc5cccc(F)c5)c(Cl)c4)c3c2)CC1`: the GI50 in the test on EKVX NSCLC is 1.31 µM; in the test with HCT-15 colon, 1.27 µM; in the test on HL-60(TB) leukemia, 2.05 µM; in the test on HT29 colon, 1.55 µM; in the test on KM12 colon it was 1.81 µM; with MDA-MB-231 breast, 1.7 µM. Also, the GI50 was 1.48 µM with NCI-H23 lung, 1.61 µM with OVCAR-3 ovarian and 1.39 µM in the test with SN12C renal. Further, the TGI worked out at 3.56 µM in the test with EKVX NSCLC; 2.92 µM in the test with HCT-15 colon; 4.17 µM with HL-60(TB) leukemia; 4.11 µM with HT29 colon; 3.39 µM with KM12 colon; 3.16 µM with MDA-MB-231 breast. Also, the figures for the TGI with NCI-H23 lung, in the test on OVCAR-3 ovarian and in the test on SN12C renal were 3.02 µM, 3.74 µM and 2.74 µM, respectively.

For `O=C1c2c(O)ccc(O)c2C(=O)c2c(NCCNCCO)ccc(NCCNCCO)c21`, the GI50 was 0.564 µM in the test with EKVX NSCLC, 0.0127 µM with HL-60(TB) leukemia, 0.459 µM in the test on KM12 colon and 0.483 µM in the test on OVCAR-3 ovarian. Moreover, the TGI in the test on EKVX NSCLC is 3.68 µM and 4.55 µM and 1.28 µM; with HCT-15 colon it was 2.55 µM and 24 µM and 4.15 µM; in the test with HT29 colon, 1.05 µM and 0.761 µM and 3.63 µM; in the test with KM12 colon, 2.58 µM and 2.59 µM and 3.9 µM; in the test on MDA-MB-231 breast it was 1.45 µM and 2.38 µM and 1.11 µM; with OVCAR-3 ovarian, 1.87 µM and 1.47 µM and 2.13 µM. Moreover, the TGI is 0.228 µM and 0.563 µM and 0.431 µM with SK-OV-3 ovarian; 0.162 µM and 1.57 µM and 0.214 µM in the test with SN12C renal.
